Test results taken from PubChem BioAssay AID284 (DTP/NCI, 2004).
Where “and” joins values, the source holds several entries; their conditions need not be identical. Equal entries are not always repeated. Inconclusive results and toxic doses are left out.

Tested on: BDF1 mice, L1210/MTX-resistant leukemia ip, survival T/C
Test: NCI In Vivo Anticancer Drug Screen. Data for tumor model L1210 Leukemia resistant to Methotrexate; NSC 740 (intraperitoneal) in B6D2F1 (BDF1) mice
Conditions: endpoint: mean survival time, higher = longer survival
Protocol: The antitumor activity of compounds was measured in mice bearing transplantable tumors. Survival or tumor size were measured and the results are expressed as the measurement made in the treated group (T) divided by the measurement made in the vehicle treated control group (C). The tumor model used in this assay is L1210 Leukemia resistant to Methotrexate; NSC 740 (intraperitoneal) in B6D2F1 (BDF1) mice

[1] = dose: 5.0 mg/kg/injection, schedule: Q01DX Z (ip), vehicle: carboxymethylcellulose (CMC)
[2] = dose: 12.5 mg/kg/injection, schedule: Q01DX Z (ip), vehicle: carboxymethylcellulose (CMC)
[3] = dose: 25.0 mg/kg/injection, schedule: Q01DX Z (ip), vehicle: carboxymethylcellulose (CMC)
[4] = dose: 5.0 mg/kg/injection, schedule: Q01DX Z (ip), vehicle: saline
[5] = dose: 10.0 mg/kg/injection, schedule: Q01DX Z (ip), vehicle: saline
[6] = dose: 3.75 mg/kg/injection, schedule: Q01DX Z (ip), vehicle: carboxymethylcellulose (CMC)
[7] = dose: 7.5 mg/kg/injection, schedule: Q01DX Z (ip), vehicle: carboxymethylcellulose (CMC)
[8] = dose: 15.0 mg/kg/injection, schedule: Q01DX Z (ip), vehicle: carboxymethylcellulose (CMC)
[9] = dose: 30.0 mg/kg/injection, schedule: Q01DX Z (ip), vehicle: carboxymethylcellulose (CMC)

O=C(O)CCCc1ccc(N(CCCl)CCCl)cc1
T/C (dose: 1.0 mg/kg/injection, schedule: Q01DX Z (ip), vehicle: carboxymethylcellulose (CMC)): 105 % of control
T/C (dose: 2.0 mg/kg/injection, schedule: Q01DX Z (ip), vehicle: carboxymethylcellulose (CMC)): 97 % of control
T/C (dose: 4.0 mg/kg/injection, schedule: Q01DX Z (ip), vehicle: carboxymethylcellulose (CMC)): 96 % of control
T/C [1]: 103 % of control
T/C (dose: 6.25 mg/kg/injection, schedule: Q01DX Z (ip), vehicle: carboxymethylcellulose (CMC)): 107 % of control
T/C [2]: 95 % of control
T/C [3]: 90 % of control

C[N+](C)(C)c1ncnc2nc[nH]c12
T/C (dose: 15.0 mg/kg/injection, schedule: Q01DX010 (ip), vehicle: saline): 94 % of control

COS(C)(=O)=O
T/C [4]: 105 % of control
T/C [5]: 103 % of control
T/C (dose: 20.0 mg/kg/injection, schedule: Q01DX Z (ip), vehicle: saline): 103 % of control
T/C (dose: 40.0 mg/kg/injection, schedule: Q01DX Z (ip), vehicle: saline): 97 % of control

Nc1nc(F)nc2c1ncn2C1OC(CO)C(O)C1O (configuration not stated)
T/C (dose: 0.25 mg/kg/injection, schedule: Q01DX Z (ip), vehicle: saline): 122 % of control
T/C (dose: 0.75 mg/kg/injection, schedule: Q01DX Z (ip), vehicle: saline): 115 % of control
T/C (dose: 1.5 mg/kg/injection, schedule: Q01DX Z (ip), vehicle: saline): 108 % of control
T/C (dose: 3.0 mg/kg/injection, schedule: Q01DX Z (ip), vehicle: saline): 104 % of control
T/C (dose: 6.0 mg/kg/injection, schedule: Q01DX Z (ip), vehicle: saline): 86 % of control
T/C (dose: 25.0 micrograms/kg/injection, schedule: Q01DX Z (ip), vehicle: saline): 91 % of control
T/C (dose: 50.0 micrograms/kg/injection, schedule: Q01DX Z (ip), vehicle: saline): 92 % of control
T/C (dose: 100.0 micrograms/kg/injection, schedule: Q01DX Z (ip), vehicle: saline): 100 % of control
T/C (dose: 210.0 micrograms/kg/injection, schedule: Q01DX Z (ip), vehicle: saline): 86 % of control

C[C@@H]1C[C@H]2CC[C@H](O2)[C@H](C)C(=O)O[C@@H](C)C[C@@H]2CC[C@@H](O2)[C@@H](C)C(=O)O[C@H](C)C[C@H]2CC[C@H](O2)[C@H](C)C(=O)O[C@@H](C)C[C@@H]2CC[C@@H](O2)[C@@H](C)C(=O)O1
T/C (dose: 100.0 mg/kg/injection, schedule: Q01DX Z (ip), vehicle: methylcellulose (MC)): 89 % of control

O=C(Nc1ccc(C2=NCCN2)cc1)c1ccc(C(=O)Nc2ccc(C3=NCCN3)cc2)c(Cl)c1
T/C (dose: 1.9 mg/kg/injection, schedule: Q01DX Z (ip), vehicle: other): 88 % of control
T/C (dose: 2.0 mg/kg/injection, schedule: Q01DX010 (ip), vehicle: other): 122 % of control
T/C (dose: 3.8 mg/kg/injection, schedule: Q01DX Z (ip), vehicle: other): 94 % of control
T/C (dose: 7.5 mg/kg/injection, schedule: Q01DX Z (ip), vehicle: other): 97 % of control
T/C (dose: 8.0 mg/kg/injection, schedule: Q01DX010 (ip), vehicle: other): 170 % of control
T/C (dose: 8.5 mg/kg/injection, schedule: Q02DX010 (ip), vehicle: carboxymethylcellulose (CMC)): 123 % of control
T/C [5]: 118 % of control and 110 % of control
T/C (dose: 15.0 mg/kg/injection, schedule: Q01DX Z (ip), vehicle: other): 97 % of control
T/C (dose: 16.0 mg/kg/injection, schedule: Q01DX010 (ip), vehicle: other): 177 % of control and 221 % of control
T/C (dose: 20.0 mg/kg/injection, schedule: Q01DX Z (ip), vehicle: other): 124 % of control
T/C (dose: 30.0 mg/kg/injection, schedule: Q01DX Z (ip), vehicle: other): 101 % of control
T/C (dose: 30.0 mg/kg/injection, schedule: Q02DX010 (ip), vehicle: carboxymethylcellulose (CMC)): 192 % of control
T/C (dose: 32.0 mg/kg/injection, schedule: Q01DX010 (ip), vehicle: other): 250 % of control and 274 % of control
T/C (dose: 40.0 mg/kg/injection, schedule: Q01DX Z (ip), vehicle: other): 95 % of control
T/C (dose: 45.0 mg/kg/injection, schedule: Q02DX010 (ip), vehicle: carboxymethylcellulose (CMC)): 190 % of control
T/C (dose: 80.0 mg/kg/injection, schedule: Q01DX Z (ip), vehicle: other): 91 % of control
T/C (dose: 80.0 mg/kg/injection, schedule: Q01DX Z (ip), vehicle: saline): 88 % of control

c1ccc(CNc2ncnc3[nH]ncc23)cc1
T/C (dose: 8.0 mg/kg/injection, schedule: Q01DX010 (ip), vehicle: saline): 94 % of control and 103 % of control
T/C (dose: 16.0 mg/kg/injection, schedule: Q01DX010 (ip), vehicle: saline): 96 % of control and 100 % of control
T/C (dose: 32.0 mg/kg/injection, schedule: Q01DX010 (ip), vehicle: saline): 91 % of control

CCC(=O)O[C@H]1CC[C@H]2[C@@H]3CCC4=CC(=O)CC[C@]4(C)[C@H]3CC[C@]12C
T/C (dose: 125.0 mg/kg/injection, schedule: Q01DX Z (sc), vehicle: steriod suspending solution): 100 % of control and 102 % of control
T/C (dose: 250.0 mg/kg/injection, schedule: Q01DX Z (sc), vehicle: steriod suspending solution): 102 % of control
T/C (dose: 1000.0 mg/kg/injection, schedule: Q01DX Z (sc), vehicle: steriod suspending solution): 86 % of control and 89 % of control

CC(CCC(C)OS(C)(=O)=O)OS(C)(=O)=O (configuration not stated)
T/C [6]: 86 % of control
T/C [1]: 114 % of control
T/C [7]: 106 % of control
T/C (dose: 10.0 mg/kg/injection, schedule: Q01DX Z (ip), vehicle: carboxymethylcellulose (CMC)): 91 % of control
T/C [2]: 98 % of control
T/C (dose: 50.0 mg/kg/injection, schedule: Q01DX Z (ip), vehicle: carboxymethylcellulose (CMC)): 88 % of control
T/C (dose: 75.0 mg/kg/injection, schedule: Q01DX Z (ip), vehicle: carboxymethylcellulose (CMC)): 98 % of control

CCn1cnc2c(=S)nc[nH]c21
T/C (dose: 12.0 mg/kg/injection, schedule: Q01DX Z (ip), vehicle: carboxymethylcellulose (CMC)): 95 % of control
T/C (dose: 15.6 mg/kg/injection, schedule: Q01DX010 (ip), vehicle: saline): 102 % of control
T/C (dose: 18.0 mg/kg/injection, schedule: Q01DX Z (ip), vehicle: carboxymethylcellulose (CMC)): 98 % of control
T/C [3]: 121 % of control
T/C (dose: 31.3 mg/kg/injection, schedule: Q01DX010 (ip), vehicle: saline): 90 % of control
T/C (dose: 37.0 mg/kg/injection, schedule: Q01DX Z (ip), vehicle: carboxymethylcellulose (CMC)): 89 % of control
T/C (dose: 100.0 mg/kg/injection, schedule: Q01DX Z (ip), vehicle: carboxymethylcellulose (CMC)): 90 % of control
T/C (dose: 125.0 mg/kg/injection, schedule: Q01DX010 (ip), vehicle: saline): 90 % of control

O=CCC(O)C(O)C(O)CO (configuration not stated)
T/C (dose: 3.75 mg/kg/injection, schedule: Q01DX Z (ip), vehicle: saline): 113 % of control
T/C [4]: 118 % of control
T/C (dose: 7.5 mg/kg/injection, schedule: Q01DX Z (ip), vehicle: saline): 114 % of control and 103 % of control
T/C [5]: 118 % of control
T/C (dose: 15.0 mg/kg/injection, schedule: Q01DX Z (ip), vehicle: saline): 114 % of control
T/C (dose: 250.0 mg/kg/injection, schedule: Q01DX Z (ip), vehicle: saline): 108 % of control
T/C (dose: 500.0 mg/kg/injection, schedule: Q01DX Z (ip), vehicle: saline): 104 % of control
T/C (dose: 750.0 mg/kg/injection, schedule: Q01DX Z (ip), vehicle: saline): 99 % of control
T/C (dose: 1000.0 mg/kg/injection, schedule: Q01DX Z (ip), vehicle: saline): 91 % of control

O=c1[nH]c(=O)n(C2CC(O)C(CO)O2)cc1Br (configuration not stated)
T/C [6]: 93 % of control
T/C [7]: 120 % of control
T/C [8]: 113 % of control
T/C [9]: 104 % of control

NC(=O)N(CCCl)N=O
T/C (dose: 0.5 mg/kg/injection, schedule: Q01DX010 (ip), vehicle: saline): 158 % of control
T/C (dose: 4.0 mg/kg/injection, schedule: Q01DX010 (ip), vehicle: saline): 104 % of control

C[C@@H]1C[C@@H]([C@H](O)CC2CC(=O)NC(=O)C2)C(=O)[C@@H](C)C1
T/C (dose: 5.0 mg/kg/injection, schedule: Q01DX010 (ip), vehicle: saline): 90 % of control and 105 % of control
T/C [7]: 112 % of control and 96 % of control
T/C (dose: 10.0 mg/kg/injection, schedule: Q01DX010 (ip), vehicle: saline): 103 % of control
T/C [8]: 92 % of control and 108 % of control
T/C (dose: 20.0 mg/kg/injection, schedule: Q01DX010 (ip), vehicle: saline): 97 % of control
T/C [9]: 114 % of control
T/C (dose: 40.0 mg/kg/injection, schedule: Q01DX010 (ip), vehicle: saline): 95 % of control and 97 % of control
